Test results from patent US6613534B2, “MAP-2 as a determinant of metastatic potential” (Wake Forest University Health Sciences, priority 2001, dated 2003).
“Also recorded” adds a separate entry of the source. Where two headings read alike, the source gives them in different places.

How the values were obtained:
[1] = tested on: MAP-2 mRNA in SK-MEL-19 melanoma cells; test: Northern blot of total RNA for MAP-2 expression, cAMP and protein kinase C pathway agents (FIG. 8); format: cell-based, human
[2] = tested on: TYRP1 mRNA in SK-MEL-19 melanoma cells; test: Northern blot of total RNA for TYRP1 expression (FIG. 8); format: cell-based, human
[3] = tested on: SK-MEL-19 human metastatic melanoma cell line; test: Cell morphology of HMBA-treated melanoma cells (FIG. 3); format: cell-based; settings: SK-MEL-19, 5 mM HMBA for 5 days
[4] = tested on: MAP-2 cDNA (approximately 450 bp fragment) in SK-MEL-19 melanoma cells; test: Differential display RT-PCR of control and HMBA-treated cells; format: cell-based, human; settings: 5 mM HMBA-treated vs control SK-MEL-19 cells
Experimental: Differential display was used to characterize changes in gene expression associated with growth inhibition in melanoma cells. For differential display (DD), RT-PCR was performed using a GeneAmp System 2400 (Perkin-Elmer Corp., Foster City, Calif.). DD was performed using the DeltaTM Differential Display Kit (Clontech Laboratories Inc.). […] Diluted cDNA (1:12.5 and 1:50) was used to amplify DD-PCR product in the presence of [α-^33P]dATP (Dupont NEN, Boston, Mass.) using a random combination of arbitrary primers and oligo (dT) primers. PCR products were resolved by electrophoresis in a 5% polyacrylamide, 8 M urea sequencing gel. The gel was dried and exposed to Biomax MS film (Kodak, Rochester, N.Y.). Bands differentially expressed between untreated and treated samples were cut, eluted, re-amplified, sequenced by the ABI 377 DNA Sequencer (Perkin-Elmer Corp., Foster City, Calif.). Differential display analysis was performed using RNA obtained from control and HMBA-treated SK-MEL-19 melanoma cells. Primer […] NO: 4) and oligo dT primer […] U32996; nucleotides 1931-2384). […] Cell Biol., 106:779-783 (1988)).

[5] = tested on: cultured human metastatic melanoma cells; settings: cited from earlier work
[6] = tested on: TYRP1 in cultured human metastatic melanoma cells; settings: cited from earlier work
[7] = tested on: mouse erythroleukemia cells (MEL) and a variety of human tumor cells; settings: cited from earlier work
[8] = SK-MEL-19, 5 mM HMBA, 2.5 nM CT, 10 ng/ml TPA or combinations, 6, 24 and 48 h

Row | Compound | MAP-2 expression (MAP-2c mRNA) [1, 8] | TYRP1 mRNA expression [2, 8] | cell morphology [3] | expression of ~450 bp MAP-2 cDNA by differential display [4] | cell growth [5] | TYRP1 expression [6] | cell cycle distribution [7] | terminal differentiation ([7]; mouse erythroleukemia cells (MEL) and a variety of human tumor cells) | MAP-2 expression (MAP-2c mRNA) [1] | TYRP1 mRNA expression [2]
1 | CC(=O)NCCCCCCNC(C)=O [HMBA, hexamethylene bisacetamide] | up-regulation of MAP-2 expression was detected | extinction of TYRP1 expression | induction of dendritic morphology; also recorded: formation of dendrite-like structures | over expressed in treated cells; also recorded: generates an approximately 450 bp cDNA | inhibits growth | selective down-regulation | accumulation of cells in G0/G1 phase with a significant decrease in population of cells in G2/M phase | induce terminal differentiation |  | 
2 | cholera toxin [CT] |  |  |  |  |  |  |  |  | did not induce MAP-2 expression; also recorded: does not change MAP-2 expression | did not cause down-regulation of TYRP1 mRNA
3 | CCCCCCCCCCCCCC(=O)O[C@@H]1[C@@H](C)[C@@]2(O)[C@@H](C=C(CO)C[C@]3(O)C(=O)C(C)=C[C@@H]23)[C@@H]2C(C)(C)[C@]12OC(C)=O [TPA, 12-O-tetradecanoyl phorbol-13-acetate] |  |  |  |  |  |  |  |  | did not induce MAP-2 expression; also recorded: does not change MAP-2 expression | did not cause down-regulation of TYRP1 mRNA
